Data on two molecules can be found in article PMC11561238, “Discovery and binding mode of small molecule inhibitors of the apo form of human TDO2” (Scientific Reports, 2024).

The structures appear in SMILES notation. Several values for one entry are separate records, joined by “and”; a condition that tells them apart may be missing. Identical values can stand only once.

One test has as its target T1, apo-TDO2 (Homo sapiens, UniProt P48775).
T1 construct: a longer construct (His6-aa19-406, with aa406 corresponding to the wild type C-terminal residue), which was used for DSF and other experiments; made in house; host or cells: E. coli RP523 (hemB mutant, unable to synthesize heme)
The test can be described thus: Differential scanning fluorimetry (thermal shift) of apo-TDO2. Format: binding. The procedure: […] S5 online).
Protein thermal stability and small molecule ligand binding of TDO2 in vitro was studied using differential scanning fluorimetry (DSF, also known as thermal shift assay)[34]. Assay ingredients and ligands were combined to obtain a mixture composed of 10 µM TDO2 and 10x SYPRO Orange, in assay buffer (50 mM HEPES-NaOH pH 8.0, 200 mM NaCl, 2 mM TCEP, 10% glycerol) and 2% final DMSO concentration. Small molecule chemical ligands were taken from DMSO stock solution (100 mM, 10 mM) and diluted in DMSO transferred to wells of PCR Plates (Micro Amp Fast 96-well Reaction Plates, Applied Biosystems) to ensure matching final DMSO concentrations.
DSF was carried out with a StepOnePlus™ real time PCR system. Thermal denaturation of TDO2 was monitored with a ramp rate of 1 K/min. Protein melting curves were evaluated using the Thermal Shift Software v 1.3. (Thermo Fisher Scientific) to derive differences in midpoint melting-temperatures (derivative model). The thermal shift (DTm) is documented as the difference between the reference midpoint melting temperature of proteins (containing 500 µM AMT) in the presence of the ligand vehicle (DMSO) and in the presence of ligand.
Supplementary Table S2. Differential scanning fluorimetry data corresponding to supplementary figure S4. The experiments were carried out in quadruplicate, or in triplicate where single outlier values (highlighted in bold italics) were excluded from calculation of the melting curves. AMT was added at a concentration of 500 µM; […] and […] were added at a concentration of 25 µM.

The subject of another test is holo-TDO2. Details: method as in PMID 27762317. Conditions: AMT bound to exosite; cited from earlier work.
Test [1] has as its system patients with unresectable or metastatic melanoma. Also noted: method as in PMID 31221619. Conditions: with pembrolizumab, vs placebo; cited from earlier work.
The mark [2] stands for this setting: apo-TDO2 + AMT 500 µM alone, shift vs apo, single replicates, in °C.

T1 sequence (P48775 19-406): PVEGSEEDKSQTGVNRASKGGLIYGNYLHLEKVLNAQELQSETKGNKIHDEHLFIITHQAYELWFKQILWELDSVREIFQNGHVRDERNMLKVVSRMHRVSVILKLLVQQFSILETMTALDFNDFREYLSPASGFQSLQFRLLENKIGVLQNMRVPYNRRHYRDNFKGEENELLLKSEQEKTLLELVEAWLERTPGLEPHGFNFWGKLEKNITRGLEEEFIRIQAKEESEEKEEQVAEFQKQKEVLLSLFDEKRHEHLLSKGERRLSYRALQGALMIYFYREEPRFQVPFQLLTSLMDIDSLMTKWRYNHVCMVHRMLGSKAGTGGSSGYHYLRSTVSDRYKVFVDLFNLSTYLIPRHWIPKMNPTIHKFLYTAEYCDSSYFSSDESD

Consider `C[C@](N)(Cc1c[nH]c2ccccc12)C(=O)O` [AMT, α-methyltryptophan, reference compound], for which the “melting temperature of apo-TDO2 in the absence of inhibitor” value on apo-TDO2 (500 µM AMT present) came out at 59.2 °C. Also, at apo-TDO2 (setting [2]), the “Δ Tm Boltzmann” value was 9.95 and 10.71 and 10.46; the “Δ Tm Derivative” value was 9.6 and 10.48 and 10.27. Also, the “Tm Boltzmann” value at apo-TDO2 (apo-TDO2 + AMT 500 µM alone, single replicates (text b14 gives °C), in °C) was 58.75 and 59.51 and 59.26. Also, on apo-TDO2 (apo-TDO2 + AMT 500 µM alone, single replicates, in °C), the “Tm Derivative” value is 58.49 and 59.36 and 59.16. In the test on holo-TDO2, the “effect on catalytic properties of holo-TDO2” value is listed as “not affecting the catalytic properties”; the “effect on proteolytic degradation of holo-TDO2” value is given as “prevented its proteolytic degradation by the ubiquitin-dependent proteasomal pathway”; the “stabilization of isolated holo-TDO2 enzyme” value was “stabilized the isolated holo-TDO2 enzyme against heat, urea and proteases”.
For `NS(=O)(=O)NCCNc1nonc1C(=NO)Nc1ccc(F)c(Br)c1` [epacadostat], the “progression-free survival or overall survival” value in test [1] is recorded as “failed to show improved progression-free survival or overall survival compared with placebo”.
